# In publication PMC10726481, “New Teixobactin Analogues with a Total Lactam Ring” (ACS Medicinal Chemistry Letters, 2023):
# Bridge positions count the residues as written; N and C are the ends. Square brackets hold non-standard residues; d marks the D form. Peptide text beside a SMILES is read from it. d(aIle) = CC[C@H](C)[C@@H](N)C(=O)O; dNMeF = CN[C@H](Cc1ccccc1)C(=O)O; Nle = CCCC[C@H](N)C(=O)O; dDap = NC[C@@H](N)C(=O)O
# Tests used:
# S. aureus ATCC 25923 = format: cell-based; details: ATCC 25923, 18 h
# Procedure: (§1) . The minimum inhibitory concentrations (MICs) of synthesized compounds were assessed according to the broth microdilution method using 96-well plates, in reference to the protocol of the Clinical and Laboratory Standards Institute (CLSI).[32],[33] In assays, reference strains of the bacteria S. aureus ATCC 25923, S. epidermidis ATCC 14990, and E. coli ATCC 25922 and the fungus C. glabrata ATCC 15126 were used, all from The Polish Collection of Microorganism, Polish Academy of Sciences, Wrocław, Poland. Bacteria at initial inoculums of 0.5 × 10^5 CFU/mL in Mueller–Hinton Broth (MHB), and fungus at initial inoculums of 2 × 10^3 CFU/mL in RPMI-1640, were exposed to the serial dilution of compounds. Tested concentrations were in the range 1–512 μg/mL. 96-well plates with microorganisms and tested substances were incubated at 37 °C for 18 h for bacteria and for 24 h for C. glabrata. The MIC values were taken as the lowest concentrations at which visible growth of microorganisms was inhibited. The minimum inhibitory concentrations (MICs) for MRSA ATCC 33591 were tested at the University of Liverpool. Bacterial cultures were grown overnight in Mueller–Hinton Agar (MHA) plates and adjusted to a final concentration of 10^5–10^6 CFU/mL. 100 μL of inoculum in Meuller–Hinton broth (MHB) was mixed with an equal volume of peptides (dissolved in MHB) at 2× their concentration in a 96-well plate. […] Positive and negative controls contained 200 μL of inoculum without any peptide dissolved in broth, respectively. The 96-well plates were then incubated at 37 °C for 24 h. All the experiments were performed in two independent duplicates, and the MIC was determined as the lowest concentration in which no visible growth was observed.
# [1] = tested on: S. epidermidis ATCC 14990; format: cell-based; details: ATCC 14990, 18 h
# Procedure: as §1
# C. glabrata ATCC 15126 = test: microbe, parasite or virus in culture; format: cell-based; details: for MIC C. glabrata ATCC 15126: ATCC 15126, 24 h
# Procedure: (§2) . The minimum inhibitory concentrations (MICs) of synthesized compounds were assessed according to the broth microdilution method using 96-well plates, in reference to the protocol of the Clinical and Laboratory Standards Institute (CLSI).[32],[33] In assays, reference strains of the bacteria S. aureus ATCC 25923, S. epidermidis ATCC 14990, and E. coli ATCC 25922 and the fungus C. glabrata ATCC 15126 were used, all from The Polish Collection of Microorganism, Polish Academy of Sciences, Wrocław, Poland. Bacteria at initial inoculums of 0.5 × 10^5 CFU/mL in Mueller–Hinton Broth (MHB), and fungus at initial inoculums of 2 × 10^3 CFU/mL in RPMI-1640, were exposed to the serial dilution of compounds. Tested concentrations were in the range 1–512 μg/mL. 96-well plates with microorganisms and tested substances were incubated at 37 °C for 18 h for bacteria and for 24 h for C. glabrata. The MIC values were taken as the lowest concentrations at which visible growth of microorganisms was inhibited. The minimum inhibitory concentrations (MICs) for MRSA ATCC 33591 were tested at the University of Liverpool. Bacterial cultures were grown overnight in Mueller–Hinton Agar (MHA) plates and adjusted to a final concentration of 10^5–10^6 CFU/mL. 100 μL of inoculum in Meuller–Hinton broth (MHB) was mixed with an equal volume of peptides (dissolved in MHB) at 2× their concentration in a 96-well plate. […] The final peptide concentrations ranged from 0.0625–32 μg/mL (the lower range 0.031–16 μg/mL was used). Positive and negative controls contained 200 μL of inoculum without any peptide dissolved in broth, respectively. The 96-well plates were then incubated at 37 °C for 24 h. All the experiments were performed in two independent duplicates, and the MIC was determined as the lowest concentration in which no visible growth was observed.
# E. coli ATCC 25922 = test: microbe, parasite or virus in culture; format: cell-based; details: for MIC E. coli ATCC 25922: ATCC 25922, 18 h
# Procedure: as §2
# MRSA ATCC 33591 = format: cell-based, methicillin-resistant S. aureus; details: ATCC 33591, 24 h
# Procedure: . The minimum inhibitory concentrations (MICs) of synthesized compounds were assessed according to the broth microdilution method using 96-well plates, in reference to the protocol of the Clinical and Laboratory Standards Institute (CLSI).[32],[33] In assays, reference strains of the bacteria S. aureus ATCC 25923, S. epidermidis ATCC 14990, and E. coli ATCC 25922 and the fungus C. glabrata ATCC 15126 were used, all from The Polish Collection of Microorganism, Polish Academy of Sciences, Wrocław, Poland. Bacteria at initial inoculums of 0.5 × 10^5 CFU/mL in Mueller–Hinton Broth (MHB), and fungus at initial inoculums of 2 × 10^3 CFU/mL in RPMI-1640, were exposed to the serial dilution of compounds. Tested concentrations were in the range 1–512 μg/mL. 96-well plates with microorganisms and tested substances were incubated at 37 °C for 18 h for bacteria and for 24 h for C. glabrata. The MIC values were taken as the lowest concentrations at which visible growth of microorganisms was inhibited. The minimum inhibitory concentrations (MICs) for MRSA ATCC 33591 were tested at the University of Liverpool. Bacterial cultures were grown overnight in Mueller–Hinton Agar (MHA) plates and adjusted to a final concentration of 10^5–10^6 CFU/mL. […] All the experiments were performed in two independent duplicates, and the MIC was determined as the lowest concentration in which no visible growth was observed.
# MRSA = details: compared with the 4 μg/mL of the analogues; strain not given, context MRSA; cited from earlier work
# Procedure: To determine the antimicrobial activity of these analogues, the MIC test using the microdilution method was chosen. Analogues were tested on three different types of bacteria: Gram-positive S. aureus and S. epidermidis, Gram-negative E. coli and fungus C. glabrata (Table 1) including the MRSA ATCC 33591.
Compound,MIC S. aureus ATCC 25923 (S. aureus ATCC 25923),MIC S. epidermidis ATCC 14990 [1],MIC C. glabrata ATCC 15126 (C. glabrata ATCC 15126),MIC E. coli ATCC 25922 (E. coli ATCC 25922),MIC MRSA ATCC 33591 (MRSA ATCC 33591),"MIC (E. coli ATCC 25922; Escherichia coli, ATCC25922, 18 h, read-out: MIC E. coli ATCC 25922)","MIC (C. glabrata ATCC 15126; Nakaseomyces glabratus, ATCC15126, CLSI broth microdilution, 96-well plates, RPMI-1640, inoculum 2 × 10^3 CFU/mL, 37 °C for 24 h, tested 1–512 μg/mL, visible growth)",potency (MIC) of natural teixobactin (MRSA)
CC[C@H](C)[C@@H]1NC(=O)[C@H](CCCNC(=N)N)NC(=O)[C@H](C)NC(=O)[C@H](NC(=O)[C@H](CO)NC(=O)[C@@H](NC(=O)[C@H](NC(=O)[C@@H](CCCNC(=N)N)NC(=O)[C@H](CO)NC(=O)[C@@H](NC(=O)[C@@H](Cc2ccccc2)NC)[C@@H](C)CC)[C@@H](C)CC)[C@@H](C)CC)CNC1=O [TXGS-5] (H-[dNMeF]IS[dR][d(aIle)]IS[dDap]ARI; lactam 8-C),256 µg/mL,256 µg/mL,512 µg/mL,256 µg/mL,,,,
CC[C@H](C)[C@H](NC(=O)[C@H](N)Cc1ccccc1)C(=O)N[C@@H](CO)C(=O)N[C@H](CCCNC(=N)N)C(=O)N[C@@H](C(=O)N[C@H](C(=O)N[C@@H](CO)C(=O)N[C@@H]1CNC(=O)[C@H]([C@@H](C)CC)NC(=O)[C@H](CCCNC(=N)N)NC(=O)[C@H](C)NC1=O)[C@@H](C)CC)[C@@H](C)CC [TXGS-6],64 µg/mL,64 µg/mL,>512 µg/mL,>512 µg/mL,,,,
CCCC[C@@H]1NC(=O)[C@H](CCCNC(=N)N)NC(=O)[C@H](C)NC(=O)[C@H](NC(=O)[C@H](CO)NC(=O)[C@@H](NC(=O)[C@H](NC(=O)[C@@H](CCCNC(=N)N)NC(=O)[C@H](CO)NC(=O)[C@@H](NC(=O)[C@H](N)Cc2ccccc2)[C@@H](C)CC)[C@@H](C)CC)[C@@H](C)CC)CNC1=O [TXGS-8] (H-[dF]IS[dR][d(aIle)]IS[dDap]AR[Nle]; lactam 8-C),8 µg/mL,8 µg/mL,128 µg/mL,64 µg/mL,,,,
CCCC[C@@H]1NC(=O)[C@H](CCCNC(=N)N)NC(=O)[C@H](C)NC(=O)[C@H](NC(=O)[C@H](CO)NC(=O)[C@@H](NC(=O)[C@H](NC(=O)[C@@H](CCC(N)=O)NC(=O)[C@H](CO)NC(=O)[C@@H](NC(=O)[C@@H](Cc2ccccc2)NC)[C@@H](C)CC)[C@@H](C)CC)[C@@H](C)CC)CNC1=O [TXGS-3],4 µg/mL,64 µg/mL,>512 µg/mL,>512 µg/mL,4 µg/mL,,,
"CC[C@H](C)[C@@H]1NC(=O)[C@H](CCCNC(=N)N)NC(=O)[C@H](C)NC(=O)[C@H](NC(=O)[C@H](CO)NC(=O)[C@@H](NC(=O)[C@H](NC(=O)[C@@H](CCC(N)=O)NC(=O)[C@H](CO)NC(=O)[C@@H](NC(=O)[C@@H](Cc2ccccc2)NC)[C@@H](C)CC)[C@@H](C)CC)[C@@H](C)CC)CNC1=O [TXGS-1, D-Dap8,Arg10-teixobactin, reference compound]",32 µg/mL,256 µg/mL,>512 µg/mL,>512 µg/mL,,,,
"CN[C@H](CC(C)C)C(=O)N[C@H]1C(=O)N[C@@H](CC(N)=O)C(=O)N[C@H]2C(=O)N[C@H]3C(=O)N[C@H](C(=O)N[C@H](C(=O)O)c4cc(O)cc(O)c4-c4cc3ccc4O)[C@H](O)c3ccc(c(Cl)c3)Oc3cc2cc(c3O[C@@H]2O[C@H](CO)[C@@H](O)[C@H](O)[C@H]2O[C@H]2C[C@](C)(N)[C@H](O)[C@H](C)O2)Oc2ccc(cc2Cl)[C@H]1O [Vancomicin, vancomycin, reference compound]",,,,,,> 64 µg/mL,,
"CC(=O)N1CCN(c2ccc(OCC3COC(Cn4ccnc4)(c4ccc(Cl)cc4Cl)O3)cc2)CC1 (stereo not drawn) [Ketoconazole, ketoconazole, reference compound]",,,,,,,0.62 µg/mL,
CCCC[C@@H]1NC(=O)[C@H](CCCNC(=N)N)NC(=O)[C@H](C)NC(=O)[C@H](NC(=O)[C@H](CO)NC(=O)[C@@H](NC(=O)[C@H](NC(=O)[C@@H](CCCNC(=N)N)NC(=O)[C@H](CO)NC(=O)[C@@H](NC(=O)[C@@H](Cc2ccccc2)NC)[C@@H](C)CC)[C@@H](C)CC)[C@@H](C)CC)CNC1=O [TXGS-7] (H-[dNMeF]IS[dR][d(aIle)]IS[dDap]AR[Nle]; lactam 8-C),4 µg/mL,8 µg/mL,64 µg/mL,32 µg/mL,4 µg/mL,,,
teixobactin,,,,,,,,0.25 µg/mL
CC[C@H](C)[C@H](NC(=O)[C@H](N)Cc1ccccc1)C(=O)N[C@@H](CO)C(=O)N[C@H](CCC(N)=O)C(=O)N[C@@H](C(=O)N[C@H](C(=O)N[C@@H](CO)C(=O)N[C@@H]1CNC(=O)[C@H]([C@@H](C)CC)NC(=O)[C@H](CCCNC(=N)N)NC(=O)[C@H](C)NC1=O)[C@@H](C)CC)[C@@H](C)CC [TXGS-2],32 µg/mL,128 µg/mL,>512 µg/mL,>512 µg/mL,,,,
